{"source": "patent US20090196914A1", "about": "“LIPOSOMAL L-CARNITINE” (priority 2002, published 2009)", "origin": "cited, not measured here", "conditions": "oral drug"}
{"smiles": "CCC(=O)O[C@H](CC(=O)[O-])C[N+](C)(C)C", "note": "[Propionyl-L-carnitine]", "values": [{"measurement": "bioavailability", "result": 15, "unit": "%"}]}
